Assay results taken from US20260078346A1, “Cell Tissue Production Method, Application Method and Application Device” (NTN Corporation, priority 2022, published 2026).

Legend:
[1] = tested on: application tissue (myocardial tissue of iPS cardiomyocytes and normal human cardiac fibroblasts); experiment: Ca2+ transient waveform change on addition of isoproterenol, application tissue; type: cell-based; conditions: increasing isoproterenol concentration (nM)
Method: (§1) After a myocardial tissue after being cultured for seven days was dyed, Ca^2+ transient measurement was performed from the viewpoint of checking a function of myocardial contraction. The measurement was performed for a myocardial tissue after culture (hereinafter described as “application tissue”) illustrated in FIG. 29 in this example and a planarly cultured tissue (hereinafter described as “2D tissue”) serving as a comparative example. In the myocardial tissue in the comparative example, iPS cardiomyocytes (iCell Cardiomyocyte 2) and normal human cardiac fibroblast were set to 4:1 in a number ratio. In the myocardial tissue in the comparative example, 50000 cells per one well were seeded and planarly cultured in the same culture medium as the culture medium of the application tissue obtained by the same application device as the application device in the second embodiment. A result of the Ca^2+ transient measurement is illustrated in the following Table 1.
(§2) Subsequently, a change in a Ca^2+ transient waveform at the time when isoproterenol that is a β adrenergic receptor agonist was added was evaluated. In general, the isoproterenol raises the heart rate and the contraction force of a cardiomyocyte. The contraction force of the cardiomyocyte has a correlation with the fluorescence intensity (AMP) of the Ca^2+ transient measurement. […]

[2] = tested on: 2D tissue (planarly cultured iPS cardiomyocytes and normal human cardiac fibroblasts); experiment: Ca2+ transient waveform change on addition of isoproterenol, 2D tissue; type: cell-based; conditions: increasing isoproterenol concentration (nM)
Method: as §1, §2

## CC(C)NCC(O)c1ccc(O)c(O)c1 (stereo not shown) [isoproterenol]
[1]; FIG. 31
  change in BPM when isoproterenol is added: rose according to an increase in the isoproterenol concentration
[1]; FIG. 32
  change in AMP (fluorescence intensity) when isoproterenol is added: rose depending on the concentration of the isoproterenol
[2]; FIG. 31
  change in BPM when isoproterenol is added: rose according to an increase in the isoproterenol concentration
[2]; FIG. 32
  change in AMP (fluorescence intensity) when isoproterenol is added: did not rise much
